Key:
Na+-efflux pump PfATP4 = tested on: Na+-efflux pump PfATP4; parameters: method as in PMID 25145582, PMID 33023071, PMID 19956997, PMID 25715757; conditions: possible target; cited from earlier work
[1] = tested on: multiresistant strain K1 of Plasmodium falciparum; parameters: method as in PMID 27467575; conditions: MMV Malaria Box; cited from earlier work
[2] = tested on: multiresistant strain Dd2 of Plasmodium falciparum; parameters: method as in PMID 27467575; conditions: MMV Malaria Box; cited from earlier work
early gametocyte stages = tested on: early gametocyte stages; parameters: method as in PMID 24060871, PMID 23234555, PMID 26787698, PMID 26749441, PMID 17521751; conditions: cited from earlier work
P. falciparum K1 = test: In vitro 3H-hypoxanthine incorporation assay, erythrocytic stages, K1 strain; type: cell-based; conditions: Plasmodium falciparum, K1; strain resistant to chloroquine and pyrimethamine; average of four determinations; read-out: P.f. K1 IC50
Method: (§1) Chloroquine (Sigma C6628) was used as standard. […] Serial drug dilutions of 11 3-fold dilution steps covering a range from 100 to 0.002 μg/mL were prepared. The 96-well plates were incubated in a humidified atmosphere at 37 °C; 4% CO2, 3% O2, 93% N2. […] The plates were incubated for a further 24 h under the same conditions. The plates were then harvested with a Betaplate cell harvester (Wallac, Zurich, Switzerland). The red blood cells were transferred onto a glass fiber filter and washed with distilled water. The dried filters were inserted into a plastic foil with 10 mL of scintillation fluid and counted in a Betaplate liquid scintillation counter (Wallac, Zurich, Switzerland).

in vitro = conditions: rat
Method: Serial drug dilutions of 11 3-fold dilution steps covering a range from 100 to 0.002 μg/mL were prepared. After 70 h of incubation, the plates were inspected under an inverted microscope to assure the growth of the controls and sterile conditions. […] Then, the plates were read with a Spectramax Gemini XS microplate fluorometer (Molecular Devices Cooperation, Sunnyvale, CA, USA) using an excitation wavelength of 536 nm and an emission wavelength of 588 nm. […] Podophyllotoxin (Sigma P4405) was used as control.

[3] = tested on: P. berghei liver schizonts; parameters: method as in PMID 27275010, PMID 16242190; conditions: P. berghei assay; cited from earlier work
P. falciparum NF54 = test: In vitro 3H-hypoxanthine incorporation assay, erythrocytic stages, NF54 strain; type: cell-based, Plasmodium falciparum; conditions: Plasmodium falciparum, NF54, chloroquine-sensitive strain; average of four determinations; read-out: P.f. NF54 IC50
Method: as §1

[4] = Parallel artificial membrane permeability assay (PAMPA); type: in vitro ADME; conditions: pH 7.4, PAMPA, pH 7.4, 200 µM in PBS, room temperature, read-out: Pe (effective permeability)
Method: The PAMPA was performed using a 96-well precoated Corning Gentest PAMPA plate at a pH of 7.4. The PAMPA plate system consists of a donor plate and an acceptor plate. When both plates are coupled, each well is divided into two chambers that are separated by a lipid–oil–lipid trilayer constructed in a porous filter. Stock solutions (10 mM) of each compound were prepared in DMSO and then further diluted to a concentration of 200 µM in phosphate-buffered saline (PBS) at pH 7.4. The compound dissolved in PBS was then added to the donor plate and pure PBS was added to the acceptor plate. Four replicates of each compound and negative control (PBS) were transferred into different wells of the donor plate. Both plates were coupled and left at room temperature for 5 h. Then, the plates were separated, and the solutions of each donor well and acceptor well were transferred to 96-well UV-Star Microplates (Greiner Bio-One). The UV absorbance of compounds in donor wells and acceptor wells were analyzed by a SpectraMax M3 UV plate reader (Molecular Devices). The concentrations were received from a calibration curve for each substance. The plates were analyzed at a wavelength where the R^2 value of the calibration curve was higher than 0.99 [34]. The effective permeability (Pe) was calculated as shown in the following Equations (1)–(3):(1) Penm/s=10^7∗−ln1−cAt/cequ/S∗1/VD+1/VA∗ t where:
cequ—equilibrium concentration. (2) cequ=cDt ∗VD+cAt ∗VA/VD+VA where:
Recovery of compounds from donor and acceptor wells (mass retention) was calculated as shown in the equation below. Data were only accepted when recovery exceeded 70%.

## CCOc1ccc(-c2nonc2NC(=O)c2cccc(C)c2)cc1OCC [Compound 1, N-(4-(3,4-Diethoxyphenyl)-1,2,5-oxadiazol-3-yl)-3-methylbenzamide]
Na+-efflux pump PfATP4
  inhibition of PfATP4: likely to inhibit
[1]
  antiplasmodial activity against multiresistant strain K1: shows antiplasmodial activity
[2]
  antiplasmodial activity against multiresistant strain Dd2: shows antiplasmodial activity
Early gametocyte stages
  activity against early gametocyte stages: working against early gametocyte stages
P. falciparum K1
  IC50: 0.011 µM
In vitro
  IC50 at 72 h: 159 µM
[3]
  activity against liver schizonts: activity against liver schizonts
P. falciparum NF54
  IC50: 0.011 µM
[4]
  Papp at 5 h, 200 µM: 27.7 nm/s
